In PMC6932632 (Biochemistry, 2019):

Target: T1, p38γ (Homo sapiens, UniProt P53778)
T1 sequence (P53778 1-367): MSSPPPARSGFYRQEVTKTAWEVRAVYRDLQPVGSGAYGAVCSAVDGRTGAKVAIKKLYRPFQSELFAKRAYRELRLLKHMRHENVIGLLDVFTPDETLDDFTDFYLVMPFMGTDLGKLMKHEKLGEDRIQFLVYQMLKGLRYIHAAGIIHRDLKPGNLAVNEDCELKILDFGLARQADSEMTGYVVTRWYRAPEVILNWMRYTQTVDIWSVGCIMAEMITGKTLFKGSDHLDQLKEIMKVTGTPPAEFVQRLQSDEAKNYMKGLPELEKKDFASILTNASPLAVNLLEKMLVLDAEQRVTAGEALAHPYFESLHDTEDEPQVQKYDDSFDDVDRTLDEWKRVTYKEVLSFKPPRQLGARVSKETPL
Assay: NMR titration
Assay type: binding

## Nc1ncnc2c1ncn2[C@@H]1O[C@H](COP(=O)(O)OP(=O)(O)OP(=O)(O)O)[C@@H](O)[C@H]1O [ATP]
  Kd: 770 µM
